Source: patent US9902766B2, “Antibodies to endoplasmin and their use” (University of Pittsburgh—Of The Commonwealth System of …, priority 2010, dated 2018)
Like-named read-outs stand apart in the source and are kept apart here.

System: MIAPaCa-2 cancer initiating cells (ALDHbright cells)
Assay: cancer initiating cell in vitro proliferation, ALDEFLUOR flow cytometry
Assay type: cell-based
Conditions: Homo sapiens, read-out: growth inhibition of ALDHbright cells
Method: FIG. 19. […] Human pancreatic adenocarcinoma MIAPaCa-2 cells were incubated with mAb W9 (25 μg/ml), for 48 hrs at 37° C. Cells were then harvested and stained with ALDEFLUOR® (TEST). Cells stained with ALDEFLUOR®+DAEB were used as a reference (CONTROL). Human Ig (HIg) were used as a control.
FIG. 26. […] Human pancreatic adenocarcinoma MIAPaCa-2 cells were incubated with mAb W9 (25 μg/ml), cyclopamine (20 μM), and 5-FU (10 μM) for 48 hrs at 37° C. Cells were then stained with ALDEFLUOR with or without the DEAB inhibitor to identify ALDH^bright cells. The anti-HLA class I mAb TP25.99 was used as a control.
FIGS. 28A and 28B. […] Human pancreatic adenocarcinoma MIAPaCa-2 cells (4×10^5/ml) were irradiated at the dose of 20Gy (panel A.) and incubated with mAb W9 (10 μg/ml) and cyclopamine (20 μM) for 72 hrs at 37° C. Cells were then stained with ALDEFLUOR with or without the DEAB inhibitor to identify ALDH^bright cells. Non-irradiated cell were used as a control (panel B.).

SMILES | inhibition at 10 µM (MIA PaCa-2, MIAPaCa-2, mAb W9 25 μg/ml, cyclopamine 20 μM, 5-FU 10 μM, 48 hrs) [%] | inhibition at 20 µM (MIA PaCa-2, 48 h) [%] | inhibition at 20 µM (MIA PaCa-2, 72 h) [%]
O=c1[nH]cc(F)c(=O)[nH]1 [5-FU, 5-fluorouracil, reference compound] | 20 | – | –
CC1=C2C[C@H]3[C@@H](CC=C4C[C@@H](O)CC[C@@]43C)[C@@H]2CC[C@]12O[C@@H]1C[C@H](C)CN[C@H]1[C@H]2C [cyclopamine, reference compound] | – | 50 | ~50
